Laboratory results: PubChem BioAssay (NCI)
Where “and” joins values, the source holds several entries; their conditions need not be identical. Equal values may be shown once.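 Briefly, cells in 96-well plates were exposed to five compound concentrations for 48 h, and endpoints were estimated by linear interpolation. Here, GI50 denotes the concentration required for 50% inhibition of growth. TGI is the concentration that stops growth completely.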

Tests used:
Assay in all cases: NCI-60 cell line screen, 48 h
LXFL 529 NSCLC = tested on: LXFL 529 NSCLC
SR leukemia = tested on: SR leukemia
OVCAR-5 ovarian = tested on: OVCAR-5 ovarian
A549 NSCLC = tested on: A549 NSCLC
TK-10 renal = tested on: TK-10 renal
XF 498 CNS = tested on: XF 498 CNS
786-0 renal = tested on: 786-0 renal
SK-MEL-28 melanoma = tested on: SK-MEL-28 melanoma
DLD-1 colon = tested on: DLD-1 colon
DU-145 prostate = tested on: DU-145 prostate
BT-549 breast = tested on: BT-549 breast
CCRF-CEM leukemia = tested on: CCRF-CEM leukemia
ACHN renal = tested on: ACHN renal
NCI-H226 lung = tested on: NCI-H226 lung
MDA-N = tested on: MDA-N
U251 CNS = tested on: U251 CNS
HL-60(TB) leukemia = tested on: HL-60(TB) leukemia
DMS 273 small cell lung = tested on: DMS 273 small cell lung
DMS 114 small cell lung = tested on: DMS 114 small cell lung
M19-MEL melanoma = tested on: M19-MEL melanoma
NCI-H23 lung = tested on: NCI-H23 lung
NCI-H460 lung = tested on: NCI-H460 lung
HCC-2998 colon = tested on: HCC-2998 colon
HOP-18 NSCLC = tested on: HOP-18 NSCLC
IGROV1 ovarian = tested on: IGROV1 ovarian
K-562 leukemia = tested on: K-562 leukemia
A498 renal = tested on: A498 renal
SK-MEL-2 melanoma = tested on: SK-MEL-2 melanoma
NCI-H522 lung = tested on: NCI-H522 lung
UACC-257 melanoma = tested on: UACC-257 melanoma
SK-OV-3 ovarian = tested on: SK-OV-3 ovarian
SN12C renal = tested on: SN12C renal
PC-3 prostate = tested on: PC-3 prostate
KM12 colon = tested on: KM12 colon
OVCAR-4 ovarian = tested on: OVCAR-4 ovarian
HCT-15 colon = tested on: HCT-15 colon
SNB-78 CNS = tested on: SNB-78 CNS
CAKI-1 renal = tested on: CAKI-1 renal
T-47D breast = tested on: T-47D breast
SNB-75 CNS = tested on: SNB-75 CNS
SNB-19 CNS = tested on: SNB-19 CNS
RXF 393 renal = tested on: RXF 393 renal
UO-31 renal = tested on: UO-31 renal
MCF7 breast = tested on: MCF7 breast
EKVX NSCLC = tested on: EKVX NSCLC
OVCAR-3 ovarian = tested on: OVCAR-3 ovarian
SK-MEL-5 melanoma = tested on: SK-MEL-5 melanoma
UACC-62 melanoma = tested on: UACC-62 melanoma
COLO 205 colon = tested on: COLO 205 colon
HS 578T breast = tested on: HS 578T breast
MDA-MB-435 = tested on: MDA-MB-435
HOP-62 NSCLC = tested on: HOP-62 NSCLC
RPMI-8226 leukemia = tested on: RPMI-8226 leukemia
M14 melanoma = tested on: M14 melanoma
SF-268 CNS = tested on: SF-268 CNS
HT29 colon = tested on: HT29 colon
MALME-3M melanoma = tested on: MALME-3M melanoma
MOLT-4 leukemia = tested on: MOLT-4 leukemia
SF-539 CNS = tested on: SF-539 CNS
SW-620 colon = tested on: SW-620 colon
SF-295 CNS = tested on: SF-295 CNS
HCT-116 colon = tested on: HCT-116 colon
OVCAR-8 ovarian = tested on: OVCAR-8 ovarian
LOX IMVI melanoma = tested on: LOX IMVI melanoma
KM20L2 colon = tested on: KM20L2 colon
MDA-MB-231 breast = tested on: MDA-MB-231 breast
HOP-92 NSCLC = tested on: HOP-92 NSCLC

Structure (SMILES): O=[N+]([O-])c1cccc2nc3ccccc3c(NCCO)c12
- TGI (LXFL 529 NSCLC): 15.7 nM
- GI50 (SR leukemia): 1.39 nM
- TGI (SR leukemia): 7.31 nM
- GI50 (OVCAR-5 ovarian): 0.703 nM
- TGI (OVCAR-5 ovarian): 9.29 nM and 3.07 nM
- GI50 (A549 NSCLC): 0.154 nM
- TGI (A549 NSCLC): 1.46 nM
- GI50 (TK-10 renal): 0.594 nM
- TGI (TK-10 renal): 9.35 nM and 2.74 nM
- TGI (XF 498 CNS): 4.37 nM
- GI50 (786-0 renal): 0.265 nM
- TGI (786-0 renal): 2.1 nM
- GI50 (SK-MEL-28 melanoma): 0.707 nM
- TGI (DLD-1 colon): 3.08 nM
- GI50 (DU-145 prostate): 0.0482 nM
- TGI (DU-145 prostate): 1.95 nM
- GI50 (BT-549 breast): 0.108 nM
- TGI (BT-549 breast): 0.295 nM
- GI50 (CCRF-CEM leukemia): 3.79 nM
- TGI (CCRF-CEM leukemia): > 100 nM
- GI50 (ACHN renal): 0.189 nM
- TGI (ACHN renal): 4.05 nM and 2.47 nM
- GI50 (NCI-H226 lung): 3.22 nM
- TGI (NCI-H226 lung): 9.82 nM and 19.8 nM
- GI50 (MDA-N): 0.0322 nM
- GI50 (U251 CNS): 0.4 nM
- TGI (U251 CNS): 5.18 nM
- GI50 (HL-60(TB) leukemia): 1.18 nM
- TGI (HL-60(TB) leukemia): > 100 nM
- TGI (DMS 273 small cell lung): 48.1 nM
- TGI (DMS 114 small cell lung): 14.2 nM
- TGI (M19-MEL melanoma): 8.48 nM
- GI50 (NCI-H23 lung): 0.464 nM
- TGI (NCI-H23 lung): 5.23 nM and 1.92 nM
- GI50 (NCI-H460 lung): 0.0272 nM
- GI50 (HCC-2998 colon): 1.46 nM
- TGI (HCC-2998 colon): 3.67 nM and 3.38 nM
- TGI (HOP-18 NSCLC): > 100 nM
- GI50 (IGROV1 ovarian): 11.8 nM
- TGI (IGROV1 ovarian): 13.9 nM and 72.4 nM
- GI50 (K-562 leukemia): 1.26 nM
- GI50 (A498 renal): 9.34 nM
- TGI (A498 renal): 36.7 nM
- GI50 (SK-MEL-2 melanoma): 0.338 nM
- TGI (SK-MEL-2 melanoma): 0.857 nM
- GI50 (NCI-H522 lung): 0.527 nM
- TGI (NCI-H522 lung): 1.52 nM
- GI50 (UACC-257 melanoma): 0.999 nM
- TGI (UACC-257 melanoma): 3.84 nM
- GI50 (SK-OV-3 ovarian): 4.69 nM
- GI50 (SN12C renal): 0.299 nM
- TGI (SN12C renal): 2.32 nM
- GI50 (PC-3 prostate): 0.136 nM
- TGI (PC-3 prostate): 0.414 nM
- GI50 (KM12 colon): 1.1 nM
- TGI (KM12 colon): 12.9 nM
- TGI (OVCAR-4 ovarian): 2.93 nM and 26.7 nM
- GI50 (HCT-15 colon): 0.293 nM
- TGI (HCT-15 colon): 4.25 nM
- TGI (SNB-78 CNS): 50.4 nM and 12 nM
- GI50 (CAKI-1 renal): 0.484 nM
- TGI (CAKI-1 renal): 2.93 nM
- TGI (T-47D breast): 4.8 nM
- TGI (SNB-75 CNS): 5.01 nM
- GI50 (SNB-19 CNS): 1.2 nM
- TGI (SNB-19 CNS): 87.8 nM
- GI50 (RXF 393 renal): 0.14 nM
- TGI (RXF 393 renal): 3.95 nM and 0.815 nM
- GI50 (UO-31 renal): 0.336 nM
- TGI (UO-31 renal): 5.76 nM and 1.73 nM
- GI50 (MCF7 breast): 0.113 nM
- TGI (MCF7 breast): 0.471 nM
- GI50 (EKVX NSCLC): 5.47 nM
- TGI (EKVX NSCLC): 3.73 nM
- GI50 (OVCAR-3 ovarian): 2.87 nM
- TGI (OVCAR-3 ovarian): 1.78 nM
- GI50 (SK-MEL-5 melanoma): 0.279 nM
- TGI (SK-MEL-5 melanoma): 1.12 nM
- GI50 (UACC-62 melanoma): 0.705 nM
- GI50 (COLO 205 colon): 0.181 nM
- TGI (COLO 205 colon): 6.4 nM and 0.73 nM
- GI50 (HS 578T breast): 0.298 nM
- TGI (HS 578T breast): 0.802 nM
- GI50 (MDA-MB-435): 0.0714 nM
- TGI (HOP-62 NSCLC): 2.05 nM
- GI50 (RPMI-8226 leukemia): 0.0396 nM
- TGI (M14 melanoma): 0.799 nM
- GI50 (SF-268 CNS): 0.25 nM
- TGI (SF-268 CNS): 3.77 nM and 10.7 nM
- GI50 (HT29 colon): 1.82 nM
- TGI (HT29 colon): 6.86 nM and 3.46 nM
- GI50 (MALME-3M melanoma): 0.525 nM
- TGI (MALME-3M melanoma): 1.7 nM
- GI50 (MOLT-4 leukemia): 1.34 nM
- TGI (MOLT-4 leukemia): > 100 nM
- GI50 (SF-539 CNS): 0.647 nM
- TGI (SF-539 CNS): 2.14 nM
- GI50 (SW-620 colon): 0.0593 nM
- TGI (SW-620 colon): 1.4 nM
- GI50 (SF-295 CNS): 0.952 nM
- TGI (SF-295 CNS): 13.7 nM
- GI50 (HCT-116 colon): 0.0418 nM
- TGI (HCT-116 colon): 0.47 nM
- GI50 (OVCAR-8 ovarian): 1.21 nM
- TGI (OVCAR-8 ovarian): 19.2 nM
- TGI (LOX IMVI melanoma): 11.9 nM and 16.9 nM
- TGI (KM20L2 colon): 3.57 nM
- GI50 (MDA-MB-231 breast): 0.118 nM
- GI50 (HOP-92 NSCLC): 1.22 nM
- TGI (HOP-92 NSCLC): 4.61 nM and 5.48 nM
